Results as given in ChEMBL document CHEMBL1201862, “PubChem BioAssay data set” (2004).
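Five concentrations, 48 hours, 96-well plates. The concentration for 50% growth inhibition is given as GI50.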 Activity calls are given as the source filed them. Rule as the data show it: active = GI50 up to about 1.1 µM and inactive = higher.

Key:
Experiment in all cases: NCI anticancer screen, dose series, 48 h
EKVX = system: EKVX
HCC 2998 = system: HCC 2998
HOP-92 = system: HOP-92
HT-29 = system: HT-29
K562 = system: K562
M14 = system: M14
MOLT-4 = system: MOLT-4
Malme-3M = system: Malme-3M
OVCAR-4 = system: OVCAR-4
OVCAR-5 = system: OVCAR-5
RXF 393 = system: RXF 393
SF-539 = system: SF-539
SNB-19 = system: SNB-19
TK-10 = system: TK-10
HOP-62 = system: HOP-62
NCI-H226 = system: NCI-H226

SMILES | GI50 (EKVX) | GI50 (HCC 2998) | GI50 (HOP-92) | GI50 (HT-29) | GI50 (K562) | GI50 (M14) | GI50 (MOLT-4) | GI50 (Malme-3M) | GI50 (OVCAR-4) | GI50 (OVCAR-5) | GI50 (RXF 393) | GI50 (SF-539) | GI50 (SNB-19) | GI50 (TK-10) | GI50 (HOP-62) | GI50 (NCI-H226)
CCCCCCCCCOC(=S)NC | 28.1 µM (inactive) | 19.1 µM (inactive) | 18.2 µM (inactive) | 20.6 µM (inactive) | 21.8 µM (inactive) | 21.1 µM (inactive) | 17.1 µM (inactive) | 20.6 µM (inactive) | 19.6 µM (inactive) | 18.3 µM (inactive) | > 10 µM (inactive) | 17.6 µM (inactive) | 30.8 µM (inactive) | 21.3 µM (inactive) |  | 
NNC(=O)CCC(=O)Nc1ccc(Cl)cc1Cl |  | > 100 µM (inactive) | > 100 µM (inactive) | > 100 µM (inactive) | 19.1 µM (inactive) | 45.1 µM (inactive) | > 100 µM (inactive) | > 100 µM (inactive) | > 100 µM (inactive) | > 100 µM (inactive) | > 100 µM (inactive) | > 100 µM (inactive) | > 100 µM (inactive) | > 100 µM (inactive) | > 100 µM (inactive) | > 100 µM (inactive)
O=[N+]([O-])c1cccc(/C=N\NS(=O)(=O)c2ccc(Cl)cc2)c1O | > 100 µM (inactive) | > 100 µM (inactive) | 42.6 µM (inactive) | > 100 µM (inactive) | 60.1 µM (inactive) | 90.8 µM (inactive) | 47.5 µM (inactive) | > 100 µM (inactive) | > 100 µM (inactive) | > 100 µM (inactive) | 37.8 µM (inactive) | 54.2 µM (inactive) | > 100 µM (inactive) | > 100 µM (inactive) | > 100 µM (inactive) | 
O=C(c1ccccc1)[C@H]1Nc2cnccc2C2c3ccccc3CC21 (stereo partly drawn) | 19.9 µM (inactive) | 39.4 µM (inactive) | 13.1 µM (inactive) | 19.4 µM (inactive) | 3.14 µM (inactive) | 6.82 µM (inactive) | 2.99 µM (inactive) | 12.9 µM (inactive) | 0.564 µM (active) | 28.4 µM (inactive) | 14.8 µM (inactive) | 15.7 µM (inactive) | 26.7 µM (inactive) | 35.1 µM (inactive) | 25 µM (inactive) | 4.26 µM (inactive)
Cc1cc(Cl)ccc1NC(=O)C(=O)Cc1nc2ccc(C(=O)c3ccccc3)cc2nc1O | > 100 µM (inactive) | > 100 µM (inactive) | 20.4 µM (inactive) | > 100 µM (inactive) |  | 96.6 µM (inactive) | 46.8 µM (inactive) | > 100 µM (inactive) | > 100 µM (inactive) |  | > 100 µM (inactive) | > 100 µM (inactive) | > 100 µM (inactive) | > 100 µM (inactive) | 92 µM (inactive) | 64.7 µM (inactive)
COC(=O)N/N=C/c1oc(-c2cccc([N+](=O)[O-])c2)c(-c2cccc([N+](=O)[O-])c2)c1[N+](=O)[O-] | > 100 µM (inactive) | > 100 µM (inactive) | 49.3 µM (inactive) | > 100 µM (inactive) | 26.5 µM (inactive) | > 100 µM (inactive) | 24.2 µM (inactive) |  | > 100 µM (inactive) | > 100 µM (inactive) | > 100 µM (inactive) |  | > 100 µM (inactive) | > 100 µM (inactive) | > 100 µM (inactive) | 
N=C(N)NCCCC(Nc1c2ccccc2[n+]([O-])c2ccccc12)C(=O)O (stereo not drawn) | 96.6 µM (inactive) | 27.2 µM (inactive) |  |  | 27 µM (inactive) | 73.6 µM (inactive) | 37.8 µM (inactive) | 39.4 µM (inactive) | 65.5 µM (inactive) | 56.5 µM (inactive) |  |  | 64 µM (inactive) | > 100 µM (inactive) | > 100 µM (inactive) | 70.6 µM (inactive)
O=CC1CCCc2ccccc21 (stereo not drawn) | > 100 µM (inactive) | > 100 µM (inactive) | > 100 µM (inactive) | > 100 µM (inactive) | > 60 µM (inactive) | > 100 µM (inactive) | > 100 µM (inactive) | > 100 µM (inactive) | > 100 µM (inactive) | > 100 µM (inactive) | > 100 µM (inactive) |  | > 100 µM (inactive) | > 100 µM (inactive) | > 100 µM (inactive) | > 100 µM (inactive)
O=C(Nc1cc(Cl)ccc1Cl)c1cc2cccc(Br)c2oc1=O | > 100 µM (inactive) |  |  | > 100 µM (inactive) | > 100 µM (inactive) | > 100 µM (inactive) | > 100 µM (inactive) | > 100 µM (inactive) |  |  | > 100 µM (inactive) | 56.4 µM (inactive) | > 100 µM (inactive) | > 100 µM (inactive) | 47.2 µM (inactive) | > 100 µM (inactive)
CCCCNC(=S)OCCC(C)CCCC(C)C (stereo not drawn) | > 100 µM (inactive) | > 100 µM (inactive) |  | > 100 µM (inactive) | > 100 µM (inactive) | > 100 µM (inactive) | > 100 µM (inactive) | > 100 µM (inactive) | > 100 µM (inactive) | > 100 µM (inactive) | > 100 µM (inactive) | > 100 µM (inactive) | > 100 µM (inactive) | > 100 µM (inactive) | > 100 µM (inactive) | 
CCN(CC)CC(=O)NC1c2ccccc2Oc2ccccc21 | > 100 µM (inactive) | > 100 µM (inactive) |  | > 100 µM (inactive) | > 100 µM (inactive) | > 100 µM (inactive) | > 100 µM (inactive) |  | > 100 µM (inactive) | > 100 µM (inactive) | > 100 µM (inactive) | > 100 µM (inactive) | > 100 µM (inactive) | > 100 µM (inactive) | > 100 µM (inactive) | > 100 µM (inactive)
N#CCCN(c1ccc(/C=C2\N=C(Cc3ccccc3)OC2=O)cc1)S(=O)(=O)c1ccccc1 | > 100 µM (inactive) | > 100 µM (inactive) |  | > 100 µM (inactive) | > 100 µM (inactive) | > 100 µM (inactive) | > 100 µM (inactive) | > 100 µM (inactive) |  | > 100 µM (inactive) | > 100 µM (inactive) | > 100 µM (inactive) | > 100 µM (inactive) | > 100 µM (inactive) | > 100 µM (inactive) | > 100 µM (inactive)
O=C(CCC/C(CC(=O)c1ccc(Br)cc1)=N\O)Nc1ccccc1 | > 100 µM (inactive) | > 100 µM (inactive) | 73.3 µM (inactive) | 57.4 µM (inactive) |  | > 100 µM (inactive) | 24.5 µM (inactive) | > 100 µM (inactive) | 76.9 µM (inactive) | 28.2 µM (inactive) | 45.9 µM (inactive) |  | > 100 µM (inactive) | > 100 µM (inactive) | > 100 µM (inactive) | > 100 µM (inactive)
CC1CCC2c3c([nH]c4ccccc34)C3C(=O)N(c4ccccc4)C(=O)C3C2C1 (stereo not drawn) | > 250 µM (inactive) | 106 µM (inactive) | 11.1 µM (inactive) | > 250 µM (inactive) | 46.8 µM (inactive) | 46.1 µM (inactive) | 25.4 µM (inactive) | 54.3 µM (inactive) | > 250 µM (inactive) | > 100 µM (inactive) | 12.2 µM (inactive) | 6.64 µM (inactive) | 32.6 µM (inactive) | 21.7 µM (inactive) | 32.7 µM (inactive) | 32.1 µM (inactive)
O=C(CN1CCN(c2cccc(Cl)c2)CC1)N1CCc2c([nH]c3ccccc23)C1c1cccnc1 (stereo not drawn) | 16.8 µM (inactive) | 5.24 µM (inactive) | 12.8 µM (inactive) | 4 µM (inactive) | 3.03 µM (inactive) | 4.47 µM (inactive) | 2.54 µM (inactive) |  | 13.5 µM (inactive) | 3.96 µM (inactive) | 2.67 µM (inactive) | 15.5 µM (inactive) | 26.1 µM (inactive) | 26.2 µM (inactive) | 14.7 µM (inactive) | 
C/C(CC(=O)Nc1cccc([N+](=O)[O-])c1)=N\NC(=O)C[n+]1ccccc1 | > 100 µM (inactive) | > 100 µM (inactive) | > 100 µM (inactive) | > 100 µM (inactive) |  | > 100 µM (inactive) | > 100 µM (inactive) | > 100 µM (inactive) |  | > 100 µM (inactive) | > 100 µM (inactive) | > 100 µM (inactive) |  | > 100 µM (inactive) | > 100 µM (inactive) | > 100 µM (inactive)
COc1ccc(-n2/c(=N/C(=S)N(C)C)ss/c2=N\C(=S)N(C)C)cc1 | > 100 µM (inactive) | > 100 µM (inactive) |  | 2.26 µM (inactive) | 11.6 µM (inactive) | 36.9 µM (inactive) | 79.4 µM (inactive) | > 100 µM (inactive) | 4.7 µM (inactive) | > 100 µM (inactive) | 29.6 µM (inactive) | 52.2 µM (inactive) | 11.6 µM (inactive) | > 100 µM (inactive) | 50.7 µM (inactive) | > 100 µM (inactive)
CC(=O)Nc1ccc(/C=C/C(=O)c2sc(-c3cccnc3)nc2C)cc1 | > 100 µM (inactive) | > 100 µM (inactive) | > 100 µM (inactive) | > 100 µM (inactive) | > 100 µM (inactive) |  | > 100 µM (inactive) | > 100 µM (inactive) |  | > 100 µM (inactive) | > 100 µM (inactive) | > 100 µM (inactive) |  | > 100 µM (inactive) | > 100 µM (inactive) | > 100 µM (inactive)
CSc1cccc(-n2c3nc(=O)n(C)c(=O)c-3nc3ccccc32)c1 | 19.3 µM (inactive) | 4.03 µM (inactive) | 9.33 µM (inactive) | 2.51 µM (inactive) | 12.5 µM (inactive) | 2.7 µM (inactive) | 12 µM (inactive) | 3.04 µM (inactive) | 9.53 µM (inactive) | 18 µM (inactive) |  | 2.16 µM (inactive) | 12.9 µM (inactive) | 21.8 µM (inactive) | 18.1 µM (inactive) | 11.8 µM (inactive)
